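Following 48 hours of exposure in 96-well plates, responses at five concentrations were used to interpolate endpoints linearly. TGI: concentration producing complete growth inhibition.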
Experiments:
Experiment in all cases: NCI anticancer screen, dose series, 48 h
A498 renal = system: A498 renal
A549 NSCLC = system: A549 NSCLC
ACHN renal = system: ACHN renal
BT-549 breast = system: BT-549 breast
CAKI-1 renal = system: CAKI-1 renal
CCRF-CEM leukemia = system: CCRF-CEM leukemia
COLO 205 colon = system: COLO 205 colon
DU-145 prostate = system: DU-145 prostate
EKVX NSCLC = system: EKVX NSCLC
HCC-2998 colon = system: HCC-2998 colon
HCT-116 colon = system: HCT-116 colon
HCT-15 colon = system: HCT-15 colon
HL-60(TB) leukemia = system: HL-60(TB) leukemia
HOP-62 NSCLC = system: HOP-62 NSCLC
HOP-92 NSCLC = system: HOP-92 NSCLC
HS 578T breast = system: HS 578T breast
HT29 colon = system: HT29 colon
IGROV1 ovarian = system: IGROV1 ovarian
K-562 leukemia = system: K-562 leukemia
KM12 colon = system: KM12 colon
LOX IMVI melanoma = system: LOX IMVI melanoma
M14 melanoma = system: M14 melanoma
MALME-3M melanoma = system: MALME-3M melanoma
MCF7 breast = system: MCF7 breast
MDA-MB-231 breast = system: MDA-MB-231 breast
MDA-MB-435 = system: MDA-MB-435
MDA-N = system: MDA-N
MOLT-4 leukemia = system: MOLT-4 leukemia
NCI-H226 lung = system: NCI-H226 lung
NCI-H23 lung = system: NCI-H23 lung
NCI-H460 lung = system: NCI-H460 lung
NCI-H522 lung = system: NCI-H522 lung
NCI/ADR-RES ovarian = system: NCI/ADR-RES ovarian
OVCAR-3 ovarian = system: OVCAR-3 ovarian
OVCAR-4 ovarian = system: OVCAR-4 ovarian
OVCAR-5 ovarian = system: OVCAR-5 ovarian
OVCAR-8 ovarian = system: OVCAR-8 ovarian
PC-3 prostate = system: PC-3 prostate
RPMI-8226 leukemia = system: RPMI-8226 leukemia
RXF 393 renal = system: RXF 393 renal
SF-268 CNS = system: SF-268 CNS
SF-295 CNS = system: SF-295 CNS
SF-539 CNS = system: SF-539 CNS
SK-MEL-2 melanoma = system: SK-MEL-2 melanoma
SK-MEL-28 melanoma = system: SK-MEL-28 melanoma
SK-MEL-5 melanoma = system: SK-MEL-5 melanoma
SK-OV-3 ovarian = system: SK-OV-3 ovarian
SN12C renal = system: SN12C renal
SNB-19 CNS = system: SNB-19 CNS
SNB-75 CNS = system: SNB-75 CNS
SR leukemia = system: SR leukemia
SW-620 colon = system: SW-620 colon
T-47D breast = system: T-47D breast
TK-10 renal = system: TK-10 renal
U251 CNS = system: U251 CNS
UACC-257 melanoma = system: UACC-257 melanoma
UACC-62 melanoma = system: UACC-62 melanoma
UO-31 renal = system: UO-31 renal
786-0 renal = system: 786-0 renal

Measured: TGI

CN1C(=O)C2C=C3CCCCC3=CC2N(C)C1=O (stereo unspecified)
not listed: 786-0 renal
> 100 µM: all other assays above

C/C(=N\Nc1nc2ccccc2s1)c1cc(C)ncn1
15.1 µM: SN12C renal | SNB-75 CNS
34.5 µM: PC-3 prostate
15.7 µM: NCI-H23 lung
23 µM: SK-MEL-2 melanoma
> 55.8 µM: SK-MEL-28 melanoma
30.9 µM: SF-295 CNS
> 36.1 µM: MALME-3M melanoma
> 27.2 µM: HCT-116 colon | UACC-257 melanoma
4.01 µM: OVCAR-8 ovarian
> 46.3 µM: BT-549 breast
> 68.2 µM: OVCAR-5 ovarian
> 30.6 µM: HOP-92 NSCLC
4.91 µM: NCI/ADR-RES ovarian
> 19.4 µM: MCF7 breast
> 32 µM: ACHN renal
61.5 µM: SNB-19 CNS
14.2 µM: KM12 colon
12.7 µM: HS 578T breast
13 µM: HCT-15 colon | SK-MEL-5 melanoma
> 32.8 µM: UACC-62 melanoma
18.3 µM: HOP-62 NSCLC
> 25 µM: OVCAR-3 ovarian
35 µM: SF-539 CNS
45.1 µM: DU-145 prostate
3.16 µM: SF-268 CNS
3.84 µM: UO-31 renal
6.63 µM: CAKI-1 renal
9.16 µM: NCI-H460 lung
4.2 µM: CCRF-CEM leukemia
> 45.2 µM: A549 NSCLC
> 49.6 µM: U251 CNS
9.82 µM: SR leukemia
25.7 µM: M14 melanoma
9.47 µM: MDA-MB-231 breast
> 54.1 µM: MDA-MB-435
> 39.8 µM: OVCAR-4 ovarian
> 35.7 µM: SK-OV-3 ovarian
4.15 µM: MOLT-4 leukemia
47.3 µM: MDA-N
17.1 µM: EKVX NSCLC
4.46 µM: NCI-H226 lung
> 21 µM: RPMI-8226 leukemia
4.71 µM: COLO 205 colon
20 µM: RXF 393 renal
> 34.6 µM: HT29 colon
5.04 µM: NCI-H522 lung
20.5 µM: IGROV1 ovarian
14.6 µM: HCC-2998 colon
> 47.3 µM: 786-0 renal
> 53.2 µM: SW-620 colon
not listed: K-562 leukemia
> 100 µM: all other assays above

Cc1cc(-c2nc3cccc(F)c3s2)ccc1N
> 96.1 µM: MOLT-4 leukemia
99.4 µM: SNB-75 CNS
> 88.2 µM: HOP-92 NSCLC
> 86 µM: SF-268 CNS
> 90.8 µM: HS 578T breast
> 91.1 µM: SN12C renal
80.5 µM: CCRF-CEM leukemia
> 74.8 µM: SR leukemia
not listed: NCI-H23 lung
> 100 µM: all other assays above

CCOP(=O)(OCC)/C(C#N)=C/c1c[nH]c2ccccc12
77.4 µM: UO-31 renal
not listed: CCRF-CEM leukemia | MOLT-4 leukemia
> 100 µM: all other assays above
